The record followed here is patent US20260049079A1, “CHIRAL SYNTHESIS OF FUSED BICYCLIC RAF INHIBITORS” (Jazz Pharmaceuticals Ireland Limited, priority 2020, published 2026).

Series [1] deals with constitutive ERK phosphorylation in HCT-116 cells (KRAS G13D). Briefly: HCT-116 AlphaLISA SureFire pERK1/2 Cellular Assay. The class given is cell-based. The settings on record: Homo sapiens. As for the experimental part: HCT-116 AlphaLISA SureFire pERK1/2 Cellular Assay
(§1) The human HCT-116 colorectal carcinoma cell line (ATCC CCL-247) endogenously expresses the KRAS^G13D mutation, which leads to constitutive activation of the MAP kinase pathway and phosphorylation of ERK. […] Assay read outs took place 2 or 24 hours after dosing with compounds. On the first day, HCT-116 cells were harvested, resuspended in growth medium (McCoys5A with Glutamax (Life Technologies 36600021) and 10% heat-inactivated fetal bovine serum (Sigma F9665)), and counted. Cells were plated in 100 μl per well in each well of a 96-well culture dish (Sigma CLS3598) to a final density of 30,000 (2 hr read) or 15,000 (24 hr read) cells per well and incubated over night at 37° C. and 5% CO2. On day 2, the growth medium was exchanged for dosing medium (McCoys5A with Glutamax (Life Technologies 36600021) and 1% heat-inactivated fetal bovine serum (Sigma F9665)) and the cells were dosed with compounds to produce a 10-point dose response, where the top concentration was 1 μM and subsequent concentrations were at ⅓ log dilution intervals. A matched DMSO control was included. The cells were subsequently incubated for either 2 or 24 hours at 37° C. and 5% CO2. After incubation, media was removed and the cells were incubated with lysis buffer containing phosphatase inhibitors for 15 minutes at room temperature. Cell lysates were transferred to a ½ area 96 well white Optiplate™ (Perkin Elmer 6005569) and incubated with anti-mouse IgG acceptor beads, a biotinylated anti-ERK1/2 rabbit antibody recognizing both phosphorylated and non-phosphorylated ERK1/2, a mouse antibody targeted to the Thr202/Tyr204 epitope and recognizing phosphorylated ERK proteins only, and streptavidin-coated donor beads. The biotinylated antibody binds to the streptavidin-coated donor beads and the phopsho-ERK1/2 antibody binds to the acceptor beads. Plates were read on an EnVision reader (Perkin Elmer) and excitation of the beads at 680 nm with a laser induced the release of singlet oxygen molecules from the donor beads that trigger energy transfer to the acceptor beads in close proximity, producing a signal that can be measured at […]. Both antibodies bound to phosphorylated ERK proteins, bringing the donor and acceptor beads into close proximity. All data were analyzed using the Dotmatics or GraphPad Prism software packages. Inhibition of ERK phosphorylation was assessed by determination of the absolute IC50 value, which is defined as the concentration of compound required to decrease the level of phosphorylated ERK proteins by 50% when compared to DMSO control.

Series [2] relates to constitutive ERK phosphorylation in WiDr cells (BRAF V600E). The series can be described thus: WiDr AlphaLISA SureFire pERK1/2 Cellular Assay. The class given is cell-based. The settings on record: Homo sapiens. On the procedure:
[Worded in the source for another cell line; used here, by the source, with some conditions changed.] as §1
WiDr AlphaLISA SureFire pERK1/2 Cellular Assay […]

A short description of series [3]: Microsomal Stability Assay (HLM). Particulars: human liver microsomes, 0.5 mg/mL protein, 1 μM compound, 37° C. The class given is in vitro ADME. On the procedure:
(§2) Microsomal Stability Assay
(§3) The stability studies were performed manually using the substrate depletion approach. Test compounds were incubated at 37° C. with cryo-preserved mouse or human liver microsomes (Corning) at a protein concentration of 0.5 mg·mL^−1 and a final substrate concentration of 1 μM. Aliquots were removed from the incubation at defined timepoints and the reaction was terminated by adding to ice-cold organic solvent. Compound concentrations were determined by LC-MS/MS analysis. The natural log of the percentage of compound remaining was plotted against each time point and the slope determined. The half-life (t1/2) and CLint were calculated using Equations 1 and 2, respectively. Data analysis was performed using Excel (Microsoft, USA).
(§4) HLM (human liver microsomes) and MLM (mouse liver microsomes) stability assay results are described in Table 34C.

A short description of series [4]: Microsomal Stability Assay (MLM). The settings on record: mouse liver microsomes, 0.5 mg/mL protein, 1 μM compound, 37° C. In kind it is in vitro ADME. On the procedure: as §2, §3, §4
Series [5] in a line: Hepatocyte Stability Assay (MLH). In kind it is in vitro ADME. Particulars: mouse hepatocytes, 0.5×10^6 cells/mL, 1 μM compound, 37° C. As for the experimental part:
Hepatocyte Stability Assay
Hepatocyte stability studies were performed manually using the substrate depletion approach. Compounds were incubated at 37° C. with cryo-preserved mouse (Bioreclamation) or human (Corning) hepatocytes at a cell density of 0.5×10^6 cells/mL and a final compound concentration of 1 μM. Sampling was performed at defined timepoints and the reaction was terminated by adding to ice-cold organic solvent. Compound concentrations were determined by LC-MS/MS analysis. The natural log of the percentage of compound remaining was plotted against each time point and the slope determined. The half-life (t1/2) and CLint were calculated using Equations 1 and 3, respectively. Data analysis was performed using Excel (Microsoft, USA).
HLH (human liver hepatocytes) and MLH (mouse liver heptaocytes) stability assay results are described in Table 34C.

Series [6] can be described thus: Plasma Protein Binding Assay (mPPB). In kind it is in vitro ADME. The settings on record: mouse plasma, equilibrium dialysis, 5 μM, 4 hours, 37° C. On the procedure: Plasma Protein Binding Assay
The plasma protein binding was determined by the equilibrium dialysis method. A known concentration of compound (5 μM) in previously frozen human or mouse plasma (Sera Labs) was dialysed against phosphate buffer using a RED device (Life Technologies) for 4 hours at 37° C. The concentration of compound in the protein containing (PC) and protein free (PF) sides of the dialysis membrane were determined by LC-MS/MS and the % free compound was determined by equation 4. Data analysis was performed using Excel (Microsoft, USA).
hPPB (human plasma protein binding) and mPPB (mouse plasma protein binding) results are described in Table 34D.

The mark [7] stands for this setting: HCT-116, 2 h, read-out: PERK HCT116 (2 hr) Abs plC50.
[8] abbreviates: HCT-116, 24 h, read-out: pERK HCT116 (24 hr) Abs plC50.
The mark [9] stands for this setting: WiDr, 2 h, read-out: PERK WiDr (2 hr) Abs plC50.

Like-named read-outs stand apart in the source and are kept apart here.

Regarding `O=C1CCc2c(Oc3ccc4c(c3)C[C@@H](c3nc(-c5ccc(F)cc5)c[nH]3)CO4)ccnc2N1` (single isomer, unassigned) [Compound A-1], the IC50 in series [1] (setting [7]) is 0.049 µM; in series [1] (setting [8]) it was 0.0955 µM; in series [2] (setting [9]), 0.0457 µM. For the same compound, the microsomal CLint at 1 µM in series [3] stood at 21.7 µL/min/mg; in series [4], 16 µL/min/mg. In series [5], this compound had a hepatocyte CLint at 1 µM of 11 µL/min/1e6 cells. The “mPPB (% free)” value in series [6] was found to be 0.8 % free.
`O=C1CCc2c(Oc3ccc4c(c3)CC(c3nc(-c5cccs5)c[nH]3)CO4)ccnc2N1` (racemic) [B-rac]: the IC50 was 0.0191 µM in series [1] (HCT-116, HCT116 cells, 2 hr, absolute pIC50, read-out: PERK HCT116 (2 hr) Abs plC50 (converted)); 0.024 µM in series [1] (HCT-116, HCT116 cells, 24 hr, absolute pIC50, read-out: pERK HCT116 (24 hr) Abs plC50 (converted)); 0.0447 µM in series [2] (WiDr cells, 2 hr, absolute pIC50, read-out: PERK WiDr (2 hr) Abs plC50 (converted)). The microsomal CLint at 1 µM was 60.1 µL/min/mg in series [3] and 58.8 µL/min/mg in series [4]. In addition, the “mPPB (% free)” value in series [6] is given as 0.7 % free.
As for `O=C1CCc2c(Oc3ccc4c(c3)CC(c3ncc(-c5ccc(F)cc5)[nH]3)CO4)ccnc2N1` (racemic) [A-rac], the results for the IC50 in series [1] (setting [7]), in series [1] (setting [8]) and in series [2] (setting [9]) were 0.0741 µM, 0.0871 µM and 0.0562 µM, respectively. The microsomal CLint at 1 µM turned out to be 26.9 µL/min/mg in series [3] and 30.6 µL/min/mg in series [4]. The same compound gave a hepatocyte CLint at 1 µM in series [5] of 23.4 µL/min/1e6 cells. Besides, the “mPPB (% free)” value in series [6] came to 1.8 % free.
Take `O=C1CCc2c(Oc3ccc4c(c3)C[C@H](c3nc(-c5ccc(F)cc5)c[nH]3)CO4)ccnc2N1` (single isomer, unassigned) [Compound A-2]: the IC50 in series [1] (setting [7]) is 0.0692 µM; in series [1] (setting [8]), 0.115 µM; in series [2] (setting [9]) it was 0.162 µM. For the same compound, the microsomal CLint at 1 µM in series [3] came out at 11.8 µL/min/mg; in series [4], 80.1 µL/min/mg. The compound further came in with an intrinsic metabolic clearance (hepatocyte CLint) at 1 µM in series [5] of 12.5 µL/min/1e6 cells. The “mPPB (% free)” value in series [6] turned out to be 0.9 % free.
